Experimental data reported in patent US20080119501A1, “IMMEDIATE RELEASE OXYMORPHONE COMPOSITIONS AND METHODS OF USING SAME” (priority 2006, published 2008).

Assay: Single- and multiple-dose pharmacokinetic and dose-proportionality study of oxymorphone IR tablets in healthy subjects
Settings: for AUC∞, mean: n=23; for AUC(0-inf) / concentration at 6 day / concentration at 7 day / concentration at 8 day / Cmax / half-life: both, human, oral
[1] = single dose oxymorphone IR 5 mg
[2] = single dose oxymorphone IR 5 mg, plasma
[3] = single dose oxymorphone IR 10 mg
[4] = single dose oxymorphone IR 10 mg, plasma
[5] = single dose oxymorphone IR 20 mg
[6] = single dose oxymorphone IR 20 mg, plasma
[7] = steady state, oxymorphone IR 5 mg q6 h
[8] = steady state, oxymorphone IR 10 mg q6 h
[9] = steady state, oxymorphone IR 20 mg q6 h

SMILES: CN1CC[C@]23c4c5ccc(O[C@@H]6O[C@H](C(=O)O)[C@@H](O)[C@H](O)[C@H]6O)c4O[C@H]2C(=O)CC[C@@]3(O)[C@H]1C5 [Oxymorphone-3-glucuronide, oxymorphone-3-glucuronide]
- t1/2 (terminal elimination half-life), mean [1]: 8.48 h
- terminal elimination rate constant, mean [1]: 0.0936 h⁻¹
- tmax, median [1]: 1.00 h
- Cmax, mean [2]: 134.24 ng/mL
- AUC∞, mean [2]: 650.03 ng·h/mL
- t1/2 (terminal elimination half-life), mean [3]: 9.15 h
- terminal elimination rate constant, mean [3]: 0.0805 h⁻¹
- tmax, median [3]: 1.00 h
- Cmax, mean [4]: 265.78 ng/mL
- AUC∞, mean [4]: 1322.72 ng·h/mL
- t1/2 (terminal elimination half-life), mean [5]: 9.67 h
- terminal elimination rate constant, mean [5]: 0.0763 h⁻¹
- tmax, median [5]: 1.00 h
- Cmax, mean [6]: 516.26 ng/mL
- AUC∞, mean [6]: 2672.40 ng·h/mL
- AUCSS, mean [7]: 618.77 ng·h/mL
- Cavg (average plasma concentration), mean [7]: 103.13 ng/mL
- Cmax, mean [7]: 180.25 ng/mL
- Cmin, mean [7]: 59.67 ng/mL
- tmax, median [7]: 1.00 h
- AUCSS, mean [8]: 1321.37 ng·h/mL
- Cavg (average plasma concentration), mean [8]: 220.23 ng/mL
- Cmax, mean [8]: 376.25 ng/mL
- Cmin, mean [8]: 136.77 ng/mL
- tmax, median [8]: 1.00 h
- AUCSS, mean [9]: 2557.29 ng·h/mL
- Cavg (average plasma concentration), mean [9]: 426.22 ng/mL
- Cmax, mean [9]: 722.24 ng/mL
- Cmin, mean [9]: 272.54 ng/mL
- tmax, median [9]: 1.00 h

SMILES: CN1CC[C@]23c4c5ccc(O)c4O[C@H]2C(O)CC[C@@]3(O)[C@H]1C5 (stereo partly drawn) [6-OH-oxymorphone]
- t1/2 (terminal elimination half-life), mean [1]: 7.27 h
- terminal elimination rate constant, mean [1]: 0.1661 h⁻¹
- tmax, median [1]: 0.50 h
- Cmax, mean [2]: 095 ng/mL
- AUC∞, mean [2]: 4.02 ng·h/mL
- t1/2 (terminal elimination half-life), mean [3]: 13.72 h
- terminal elimination rate constant, mean [3]: 0.0752 h⁻¹
- tmax, median [3]: 0.50 h
- Cmax, mean [4]: 1.62 ng/mL
- AUC∞, mean [4]: 9.90 ng·h/mL
- t1/2 (terminal elimination half-life), mean [5]: 18.35 h
- terminal elimination rate constant, mean [5]: 0.0414 h⁻¹
- tmax, median [5]: 0.50 h
- Cmax, mean [6]: 3.57 ng/mL
- AUC∞, mean [6]: 24.37 ng·h/mL
- deviation from a linear dose response (single-dose administration): approximately 20%
- AUCSS, mean [7]: 4.98 ng·h/mL
- Cavg (average plasma concentration), mean [7]: 0.83 ng/mL
- Cmax, mean [7]: 1.55 ng/mL
- Cmin, mean [7]: 0.70 ng/mL
- tmax, median [7]: 0.50 h
- AUCSS, mean [8]: 10.77 ng·h/mL
- Cavg (average plasma concentration), mean [8]: 1.80 ng/mL
- Cmax, mean [8]: 3.12 ng/mL
- Cmin, mean [8]: 1.52 ng/mL
- tmax, median [8]: 0.50 h
- AUCSS, mean [9]: 23.68 ng·h/mL
- Cavg (average plasma concentration), mean [9]: 3.95 ng/mL
- Cmax, mean [9]: 6.94 ng/mL
- Cmin, mean [9]: 3.34 ng/mL
- tmax, median [9]: 0.50 h
- deviation from a linear dose response (steady-state concentrations): approximately 10%

SMILES: CN1CC[C@]23c4c5ccc(O)c4O[C@H]2C(=O)CC[C@@]3(O)[C@H]1C5 [Oxymorphone, oxymorphone]
- dose proportionality of dose-normalised AUC∞, AUCss or Cmax (5-20 mg, single dose and steady state): linear and dose-proportional pharmacokinetics
- AUC(0-inf) (plasma, 5 mg): 4.48 ng·h/mL
- concentration at 6 day (plasma, 5 mg): 0.47 ng/mL
- concentration at 7 day (plasma, 5 mg): 0.5 ng/mL
- concentration at 8 day (plasma, 5 mg): 0.49 ng/mL
- Cmax (plasma, 5 mg, mean, single dose oxymorphone IR 5 mg): 1.1 ng/mL
- Cmax (plasma, 5 mg, mean, steady state, oxymorphone IR 5 mg q6 h): 1.73 ng/mL
- half-life (plasma, 5 mg, t1/2 (terminal elimination half-life), mean, single dose oxymorphone IR 5 mg): 7.25 h
- AUC(0-inf) (plasma, 10 mg): 9.1 ng·h/mL
- concentration at 6 day (plasma, 10 mg): 0.98 ng/mL
- concentration at 7 day (plasma, 10 mg): 0.99 ng/mL
- concentration at 8 day (plasma, 10 mg): 1.16 ng/mL
- Cmax (plasma, 10 mg, mean, single dose oxymorphone IR 10 mg): 1.93 ng/mL
- Cmax (plasma, 10 mg, mean, steady state, oxymorphone IR 10 mg q6 h): 3.51 ng/mL
- half-life (plasma, 10 mg, t1/2 (terminal elimination half-life), mean, single dose oxymorphone IR 10 mg): 7.78 h
- AUC(0-inf) (plasma, 20 mg): 20.1 ng·h/mL
- concentration at 6 day (plasma, 20 mg): 2.05 ng/mL
- concentration at 7 day (plasma, 20 mg): 2.31 ng/mL
- concentration at 8 day (plasma, 20 mg): 2.47 ng/mL
- Cmax (plasma, 20 mg, mean, single dose oxymorphone IR 20 mg): 4.39 ng/mL
- Cmax (plasma, 20 mg, mean, steady state, oxymorphone IR 20 mg q6 h): 7.33 ng/mL
- half-life (plasma, 20 mg, elimination half-life (t1/2) across doses, single dose, oxymorphone IR 5, 10 and 20 mg): 7.3 to 9.4 h
- half-life (plasma, 20 mg, t1/2 (terminal elimination half-life), mean, single dose oxymorphone IR 20 mg): 9.43 h
- time to achieve steady-state conditions (dosing every 6 hours, from trough concentrations): 3 to 4 days
- CL/F (oral clearance), mean [1]: 23.53 L/min
- Ln-CL/F, geometric least square mean (standard error), normalised to 10 mg [1]: 20.61 (1.05) L/min
- terminal elimination rate constant, mean [1]: 0.1534 h⁻¹
- CL/F (oral clearance), mean [3]: 21.42 L/min
- Ln-CL/F, geometric least square mean (standard error), normalised to 10 mg [3]: 19.62 (1.05) L/min
- terminal elimination rate constant, mean [3]: 0.1257 h⁻¹
- CL/F (oral clearance), mean [5]: 18.21 L/min
- Ln-CL/F, geometric least square mean (standard error), normalised to 10 mg [5]: 17.27 (1.05) L/min
- terminal elimination rate constant, mean [5]: 0.0835 h⁻¹
- Ln-CL/F, geometric least square mean (standard error), normalised to 10 mg (steady state, every 6 hours, oxymorphone IR 5 mg): 18.70 (1.03) L/min
- Ln-CL/F, geometric least square mean (standard error), normalised to 10 mg (steady state, every 6 hours, oxymorphone IR 10 mg): 17.08 (1.03) L/min
- Ln-CL/F, geometric least square mean (standard error), normalised to 10 mg (steady state, every 6 hours, oxymorphone IR 20 mg): 16.72 (1.03) L/min
- C/LF (oral clearance), mean [7]: 19.23 L/min
- Cavg (average plasma concentration), mean [7]: 0.77 ng/mL
- Cmin, mean [7]: 0.49 ng/mL
- C/LF (oral clearance), mean [8]: 17.63 L/min
- Cavg (average plasma concentration), mean [8]: 1.70 ng/mL
- Cmin, mean [8]: 1.16 ng/mL
- tmax, median [8]: 0.50 h
- C/LF (oral clearance), mean [9]: 17.68 L/min
- Cavg (average plasma concentration), mean [9]: 3.52 ng/mL
- Cmin, mean [9]: 2.47 ng/mL
